Consider two compounds from patent US7655597B1, “Pesticide compositions including polymeric adjuvants” (priority 2009, dated 2010).

The test system of this experiment is fire ants. The experiment is described as follows: fire ant kill test in insecticide-coated mason jar (time to death of entire population). Conditions: Table 1. It is filed as in vivo. On the procedure:
In this example a series of commercially available insecticides were tested at various dilution levels and with and without a preferred copolymer, namely the AVAIL® copolymer previously described (a 40%-60% w/w aqueous composition of a saturated sodium salt of a maleic anhydride/itaconic acid copolymer in water). In each set of test runs, the selected insecticide was tested with a population of fire ants in order to determine the time required to kill the entire population.
In particular, in each test run 20 ml of the respective liquid insecticide composition was added to a mason jar and swirled around the inside bottom thereof. The liquid was then poured off and the remainder was allowed to dry on the inner jar surface, creating substantially a monomeric dried layer. The outside neck surface of the jar was then coated in talc, and the open end of the jar was placed into a fire ant nest. The talc coating prevented the aggressive fire ants from climbing the outer surface of the jar. A population of fire ants was thus established in each jar, and the jar was then topped with an apertured mason jar cap. The time to death of all of the fire ants was then recorded.
In each case, the recommended concentration of insecticide was prepared (recorded as “1X”), followed by dilutions with water to create the diluted compositions. Where copolymer was used, the copolymer was added to the insecticide with gentle mixing, at a level of 30 ml per gallon. If desired, lesser amounts of copolymer could be used, e.g., 20 ml per gallon.
In another series of tests, insecticides were tested with various copolymers having different ratios of maleic anhydride and itaconic acid moieties, and at different pH levels. In particular, respective copolymeric compositions were prepared made up of polymaleic acid, a 1:3 weight ratio of maleic anhydride to itaconic acid, a 1:1 weight ratio of maleic anhydride to itaconic acid, a 3:1 weight ratio of maleic anhydride to itaconic acid, and a 7:1 weight ratio of maleic anhydride to itaconic acid. […]

Setting [1] is: insecticide at 1X (recommended concentration), time to death of all fire ants.

Turning to `CCOC(=O)CC(SP(=S)(OC)OC)C(=O)OCC` (stereo not drawn) [malathion, 2-(dimethoxyphosphinothioylthio) butanedioic acid diethyl ester], under setting [1], the “TIME TO DEATH” value is 1 min.

In the case of `CC1(C)C(C=C(Cl)Cl)C1C(=O)OCc1cccc(Oc2ccccc2)c1` (stereo not drawn) [permethrin, (3-phenoxyphenyl)methyl 3-(2,2-dichloroethenyl)-2,2-dimethyl-cyclopropane-1-carboxylate], the “TIME TO DEATH” value runs as follows: (insecticide at 1/3X dilution) 5 min; under setting [1], 5 min.
